Assay results from US9260504B2, “N- and C-terminal substituted antagonistic analogs of GH-RH” (University of Miami, priority 2008, dated 2016).
Marks after values point to notes of the source that are not given here.

Tests used:
Type in all cases: in vivo
[1] = system: PC-3 human hormone-independent prostate cancer; assay: PC-3 human prostate cancer xenografts in nude mice, Experiment 1; conditions: 10 μg/day s.c., daily for 35 days; means±S.E.
Procedure: (§1) Male nude mice were implanted s.c. with 3 mm^3 pieces of PC-3 human hormone-independent prostate cancer tissue on both flanks. When tumors reached a volume of approx. 50 mm^3, the mice were divided into 4 experimental groups with 8 to 10 animals in each group and received single daily injections for 35 days as follows: 1. Control (vehicle solution); 2. JMR-132 (10 μg/day s.c.); 3. Peptide 1109 (10 μg/day s.c.); 4. Peptide 11111 (10 μg/day s.c.); Tumor volumes were measured once a week. The experiment was ended on day 35 by sacrificing the mice under Isoflurane anesthesia. Resulting tumors were cleaned, weighed, and snap-frozen until further analyses. Statistical analyses of the measurement results were done by two-tailed t-test, p<0.05 being considered significant. Data are presented as the means±S.E.

[2] = system: PC-3 human hormone-independent prostate cancer; assay: PC-3 human prostate cancer xenografts in nude mice, Experiment 2; conditions: 10 μg/day s.c.
Procedure: as §1
Experiment 2 was similar to Experiment 1. Experiment 2 was started when PC-3 tumors had grown to approximately 50 mm^3 in volume. At this time, the animals were divided into 5 experimental groups with 8 animals in each group, and received single daily injections for 14 days as follows: 1. Control (vehicle solution); 2. JMR-132 (10 μg/day s.c.); 3. Peptide 1109 (5 μg/day s.c.); 4. Peptide 11109 (5 μg/day s.c.); 5. Peptide 11109 (2 μg/day s.c.). Further details of Experiment 2 are the same as for Experiment 1

[3] = system: H-460 human non-small cell lung cancer; assay: H-460 human non-SCLC xenografts in nude mice, Experiment 1; conditions: 10 μg/day s.c., 28 days; means±S.E.
Procedure: Male nude mice were implanted s.c. with 3 mm^3 pieces of H-460 human non-SCLC tumor tissue on both flanks. When tumors had grown to a mean volume of approximately 90 mm^3, the mice were randomly assigned into 4 experimental groups with 10 animals in each group and received single daily injections for 28 days as follows: 1. Control (vehicle solution); 2. JMR-132 (10 μg/day s.c.); 3. Peptide 1109 (10 μg/day s.c.); 4. Peptide 11111 (10 μg/day s.c.). Tumor volumes were measured once a week. The experiment was ended on day 28 by sacrificing the mice under Isoflurane anesthesia. Resulting tumors were cleaned, weighed, and snap-frozen until further analyses. Statistical analyses of the measurement results were done by two-tailed t-test, p<0.05 being considered significant. Data are presented as the means±S.E.

[4] = system: H-460 human non-small cell lung cancer; assay: H-460 human non-SCLC xenografts in nude mice, Experiment 2; conditions: 10 μg/day s.c.
Procedure: Male nude mice were implanted s.c. with 3 mm^3 pieces of H-460 human non-SCLC tumor tissue on both flanks. When tumors had grown to a mean volume of approximately 90 mm^3, the mice were randomly assigned into 12 experimental groups with 8 to 10 animals in each group and received single daily injections for 28 days as follows: 1. Control (vehicle solution); 2. JMR-132 (10 μg/day s.c.); 3. Peptide 11109 (5 μg/day s.c.); 4. Peptide 11113 (5 μg/day s.c.); 5. Peptide 11119 (5 μg/day s.c.); 6. Peptide 11209 (5 μg/day s.c.); 7. Peptide 11313 (5 μg/day s.c.); 8. Peptide 11408 (5 μg/day s.c.); 9. Peptide 11435 (5 μg/day s.c.); 10. Peptide 11459 (5 μg/day s.c.); 11. Peptide 11469 (5 μg/day s.c.); 12. Peptide 11491 (5 μg/day s.c.). Tumor volumes were measured once a week. The experiment was ended on day 28 by sacrificing the mice under Isoflurane anesthesia. Resulting tumors were cleaned, weighed, and snap-frozen until further analyses. Statistical analyses of the measurement results were done by two-tailed t-test, p<0.05 being considered significant. Data are presented as the means±S.E.

[5] = system: H-460 human non-small cell lung cancer; assay: H-460 human non-SCLC xenografts in nude mice, Experiment 3; conditions: 10 μg/day s.c., 28 days
Procedure: Male nude mice were implanted s.c. with 3 mm^3 pieces of H-460 human non-SCLC tumor tissue on both flanks. When tumors had grown to a mean volume of approximately 90 mm^3, the mice were randomly assigned into 8 experimental groups with 8 to 10 animals in each group and received single daily injections for 28 days as follows: 1. Control (vehicle solution); 2. JMR-132 (10 μg/day s.c.); 3. Peptide 11123 (5 μg/day s.c.); 4. Peptide 11125 (5 μg/day s.c.); 5. Peptide 11307 (5 μg/day s.c.); 6. Peptide 11317 (5 μg/day s.c.); 7. Peptide 11473 (5 μg/day s.c.); 8. Peptide 11485 (5 μg/day s.c.). Tumor volumes were measured once a week. The experiment was ended on day 28 by sacrificing the mice under Isoflurane anesthesia. Resulting tumors were cleaned, weighed, and snap-frozen until further analyses. Statistical analyses of the measurement results were done by two-tailed t-test, p<0.05 being considered significant.

[6] = system: Panc-1 human pancreatic cancer; assay: Panc-1 human pancreatic cancer xenografts in nude mice; conditions: 10 μg/day s.c. for 36 days
Procedure: Panc-1 cancers were transplanted s.c. into both flank areas of 60 female nude mice, and allowed to grow for 105 days before starting the treatment with GH-RH antagonists. The mice were randomly assigned into 3 experimental groups with 8 animals in each group and received single daily injections for 36 days as follows: 1. Control (vehicle solution); 2. JMR-132 (10 μg/day s.c.); 3. Peptide 11457 (10 μg/day s.c.). Tumor volumes were measured once a week. The experiment was ended on day 82 by sacrificing the mice under Isoflurane anesthesia. Resulting tumors were cleaned, weighed, and snap-frozen until further analyses. Statistical analyses of the measurement results were done by two-tailed t-test, p<0.05 being considered significant. Data are presented as the means±S.E.

[7] = system: SK-Hep-1 human hepatocellular cancer; assay: SK-Hep-1 human hepatocellular cancer xenografts in nude mice; conditions: 10 μg/day s.c.
Procedure: SK-Hep-1 cancers were transplanted s.c. into both flank areas of 66 female nude mice, and allowed to grow for 47 days before starting the treatment with GH-RH antagonists. The mice were randomly assigned into 4 experimental groups with 8 animals in each group and received single daily injections for 135 days as follows: 1. Control (vehicle solution); 2. JMR-132 (10 μg/day s.c.); 3. Peptide 1109 (5 μg/day s.c.); 4. Peptide 1109 (10 μg/day s.c.). Tumor volumes were measured once a week. The experiment was ended on day 135 by sacrificing the mice under Isoflurane anesthesia. Resulting tumors were cleaned, weighed, and snap-frozen until further analyses. Statistical analyses of the measurement results were done by two-tailed t-test, p<0.05 being considered significant. Data are presented as the means±S.E.

[PhAc^0-Tyr^1, D-Arg^2, Cpa^6, Ala^8, Har^9, Tyr(Me)^10, His^11, Abu^15, His^20, Nle^27, D-Arg^28, Har^29]hGH-RH(1-29)NH2 [JMR-132, reference compound]
Tumor growth after 5 weeks (%) [1]: 2820 ± 498% | Tumor growth after 2 weeks (%) ([2]; 14 days): 432% | Inhibition (%) ([2]; tumor growth after 2 weeks): 39.61% | Tumor growth after 4 weeks (%) [3]: 2404 ± 604% | Tumor growth after 4 weeks (%) ([4]; 28 days, means±S.E.): 11537 ± 8215% | Inhibition (%) ([4]; after 4 weeks, negative = stimulation): (−46.14) % | Tumor growth inhibition after 4 weeks (%) [5]: 15.37% | Tumor weights ([6]; end of experiment day 82): 185 ± 105 mg | Tumor growth from day 1 to day 82 (%) ([6]; means±S.E.): 1730 ± 350% | Tumor volume on day 82 (mm^3) ([6]; means±S.E.): 511 ± 221* mm^3 | Effect on the growth of Panc-1 human pancreatic cancers ([6]; observed for at least 82 days): less effective | Tumors with total regression ([7]; 135 days): 2 | Tumor volume (mm^3) on day 135 ([7]; 135 days, means±S.E.): 615 ± 372 mm^3 | Tumor weights (mg) ([7]; tumors removed at autopsy): 1006 ± 569 (7) mg
